Consider three compounds from ChEMBL document CHEMBL3046892, “Sensitivity difference to insecticides of a riverine caddisfly, Cheumatopsyche brevilineata (Trichoptera: Hydropsychidae), depending on the larval stages and strains” (J Pestic Sci, 2009).

Assay [1] concerns Cheumatopsyche. Nature of the assay: Ratio of EC50 for fifth-instar larvae of Cheumatopsyche brevilineata M to EC50 for first instar larvae of Cheumatopsyche brevilineata M. It counts as functional.
The test system of assay [2] is Cheumatopsyche. Nature of the assay: Insecticidal activity against first-instar larvae of Cheumatopsyche brevilineata K after 48 hr. The assay is classed as functional, organism-based.
The test system of assay [3] is Cheumatopsyche. Briefly: Insecticidal activity against fifth-instar larvae of Cheumatopsyche brevilineata M after 48 hr. The assay is classed as functional, organism-based.
The subject of assay [4] is Cheumatopsyche. Briefly: Ratio of EC50 for fifth-instar larvae of Cheumatopsyche brevilineata K to EC50 for first instar larvae of Cheumatopsyche brevilineata K. The assay is classed as functional.
Assay [5] deals with Cheumatopsyche. Nature of the assay: Insecticidal activity against first-instar larvae of Cheumatopsyche brevilineata M after 48 hr. It counts as functional, organism-based.
The subject of assay [6] is Cheumatopsyche. Nature of the assay: Insecticidal activity against fifth-instar larvae of Cheumatopsyche brevilineata K after 48 hr. The assay is classed as functional, organism-based.
The test system of assay [7] is Cheumatopsyche. Nature of the assay: Insecticidal activity against first to fifth instar larvae of Cheumatopsyche brevilineata K after 48 hr. The assay is classed as functional, organism-based.

Each structure is given as a SMILES string. ≈ marks a conversion by molar mass, not a printed value.

As to `COP(=S)(OC)Oc1ccc([N+](=O)[O-])c(C)c1` [FENITROTHION], the “Ratio EC50” value in assay [1] is listed as 4.3; in assay [4], 28.4. Further, the half-maximal effective concentration (EC50) in assay [2] amounted to 0.0261 µg/mL (≈ 0.0941 µM); in assay [3], 0.0265 µg/mL (≈ 0.0956 µM); in assay [5] it was 0.00623 µg/mL (≈ 0.0225 µM); in assay [6], 0.741 µg/mL (≈ 2.67 µM).

For the compound `CCC(C)c1ccccc1OC(=O)NC` (stereo not given) [FENOBUCARB], the “Ratio EC50” value is given as 10.3 in assay [1] and 36.9 in assay [4]. For the same compound, the 50% effective concentration (EC50) in assay [2] turned out to be 0.00789 µg/mL (≈ 0.0381 µM); in assay [3], 0.0919 µg/mL (≈ 0.443 µM); in assay [5] it was 0.00948 µg/mL (≈ 0.0457 µM); in assay [6], 0.291 µg/mL (≈ 1.4 µM).

`O=[N+]([O-])/N=C1\NCCN1Cc1ccc(Cl)nc1` [IMIDACLOPRID]: the EC50 is 0.00654 µg/mL (≈ 0.0256 µM) in assay [7], 0.0379 µg/mL (≈ 0.148 µM) in assay [3] and 0.00664 µg/mL (≈ 0.026 µM) in assay [5].
